System: mouse AhR
Assay: Competitive binding by velocity sedimentation on sucrose density gradients
Protocol: Mouse hepatoma cells, Hepa1c1c7 (Hepa), and BP^rCl cells were maintained in modified Eagle's medium (Sigma) supplemented with 10% heat-inactivated fetal bovine serum, sodium pyruvate, L-glutamine, sodium bicarbonate, and Gentamicin (MEM+), at 37° C. in a humid atmosphere with 5% CO2. BP^rCl cells are a derivative of Hepa1c1c7 cells that lack ARNT protein expression and function (Probst et al., Mol. Pharmacol. 44:511-518 (1993), which is hereby incorporated by reference in its entirety). Upon reaching 90% confluency, cells were harvested and homogenized in HEDG buffer (25 mM HEPES, 1.5 mM Na2EDTA, 1 mM dithiothreitol, 10% (v/v) glycerol, pH 7.6) containing protease inhibitors (Roche Applied Science complete mini cocktail tablet, Indianapolis, Ind.). Both Hepa and BP^rC1 cytosols were prepared by centrifugation of the homogenate at 100,000 g for 45 min.
Competitive binding of EGCG was analyzed by velocity sedimentation on sucrose gradients in a vertical tube rotor (Tsui et al., Can. J. Physiol. Pharmacol 59:927-931 (1981); Jensen et al., Toxicol. Sci. 64:41-56 (2001), which are hereby incorporated by reference in their entirety). Hepa cytosol (100 μl of 2.5 mg/ml) or BP^rCl cytosol was incubated for two hours at room temperature with either 3 nM ^3H-TCDD, 0.5 nM ^3H-TCDD, or 5 nM ^3H-BNF, in the presence of DMSO, 150-fold excess TCDF, 1 μM 3M4NF, or EGCG. Cytosols were washed with charcoal-dextran (1 mg charcoal/mg protein) in HEDG, and applied to a 10-30% (w/v) sucrose gradient in Beckman Quick-Seal centrifuge tubes (Beckman, Palo Alto, Calif.). [Methyl-^14C]-BSA was used as an internal sedimentation marker. The gradients were centrifuged for 2 h at 372,000×g in a Beckman VTI-80 rotor. Fractions were collected from the top at a rate of 1 ml/min, 0.2 ml/fraction. For competitive binding assays, fractions were assayed for radioactivity with ScintiVerse (Fisher Scientific, Fair Lawn, N.J.). […] For AhR and hsp90 density analysis, protein contained within an aliquot (200 of each fraction was separated by SDS-PAGE (7.5% acrylamide resolving gel) and transferred to PVDF membranes. Membranes were probed with antibodies recognizing AhR (Biomol) or hsp90 (Stressgen, Victoria, BC Canada). A crude estimate of the sedimentation coefficient for the EGCG shifted AhR complex was calculated by the method of Martin and Ames (Martin et al., J. Biol. Chem. 236:1372-1379 (1961), which is hereby incorporated by reference in its entirety) relative to the ^14C-BSA (4.4S) standard.

Q: How did the “displacement of TCDD from the AhR ligand-binding site” value (ARNT deficient BPrC1 cytosol, lower concentrations of 3H-TCDD) turn out when `O=C(O[C@@H]1Cc2c(O)cc(O)cc2O[C@@H]1c1cc(O)c(O)c(O)c1)c1cc(O)c(O)c(O)c1` [EGCG, epigallocatechin gallate] was run?
A: incapable of displacing TCDD

Q: What about the “inhibition of TCDD binding after pretreatment” value (BPrC1 cytosol pretreated 30 minutes with EGCG) of the same molecule?
A: failed to inhibit TCDD binding

Q: And the “competition with 3H-TCDD for specific binding to the AhR (9S peak)” value (Hepa cytosol, 3 nM 3H-TCDD, 2 h, room temperature)?
A: failed to attenuate the ^3H-TCDD 9S signal

Q: What about the “competition with 3H-BNF for binding to the AhR” value (Hepa cytosol, 5 nM 3H-BNF, 2 h, room temperature) of the same molecule?
A: failed to inhibit BNF binding

From US20120165403A1, “METHODS OF INHIBITING THE ACTIVITY OF HSP90 AND/OR ARYL HYDROCARBON RECEPTOR” (UNIVERSITY OF ROCHESTER, priority 2004, published 2012)
